The source of these data is article PMC8547461, “An Intracellular Sensing and Signal Transduction System That Regulates the Metabolism of Polycyclic Aromatic Hydrocarbons in Bacteria” (mSystems, 2021).

“And” between values parts separate entries of the source, which are not always exact repeats. Equal entries are not always repeated. Where two headings read alike, the source gives them in different places.

The target of data set [1] is T1, PdgC (Cycloclasticus sp. P1, UniProt K0C005). In words: PdgC enzymatic activity assay (Enzchek pyrophosphate assay). Conditions: PAH 2 μM, inorganic pyrophosphate assay.
T1 sequence (K0C005 1-445): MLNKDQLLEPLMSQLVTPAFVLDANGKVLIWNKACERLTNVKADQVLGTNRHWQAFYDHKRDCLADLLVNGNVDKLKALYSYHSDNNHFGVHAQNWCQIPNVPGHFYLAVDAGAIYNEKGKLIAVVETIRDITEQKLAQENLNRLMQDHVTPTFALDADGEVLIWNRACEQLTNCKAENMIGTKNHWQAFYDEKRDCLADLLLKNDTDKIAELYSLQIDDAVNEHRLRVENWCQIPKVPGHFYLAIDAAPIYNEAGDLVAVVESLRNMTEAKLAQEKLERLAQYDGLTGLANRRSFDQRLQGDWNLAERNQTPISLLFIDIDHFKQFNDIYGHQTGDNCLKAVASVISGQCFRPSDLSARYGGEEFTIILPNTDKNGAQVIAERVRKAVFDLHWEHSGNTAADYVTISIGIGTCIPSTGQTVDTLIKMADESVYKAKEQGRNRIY
Protocol: Assays were performed using the Enzchek pyrophosphate assay kit (Invitrogen). […] In addition, the pyrophosphatase in the kit was replaced by 0.4 U/ml pyrophosphatase (Sigma). […] The accumulation of phosphate was monitored over time at OD360.
Data set [2] concerns DPR-2. Put plainly: Expression of dpr-2 in wild-type P1 (real-time PCR). Conditions: wild-type strain P1 grown on PAH, control sodium acetate.
Protocol: Cycloclasticus sp. strain P1 and mutant strain PARP1 were grown in 200 ml of MMC medium containing the appropriate antibiotics, with sodium acetate or PAHs as the carbon source, in 500 ml Erlenmeyer flasks at 28°C on a rotary shaker (200 rpm). Bacterial growth was monitored based on optical density (OD600). Total RNA was extracted using the RNeasy minikit (Qiagen, Valencia, CA, USA) according to the manufacturer’s protocols and subsequently treated with DNase I (Invitrogen, Carlsbad, CA, USA). The RNA yield was estimated using a NanoDrop UV spectrometer (Thermo Scientific, Wilmington, DE, USA). […] To calculate the number of viable bacteria present, 16S rRNA gene copy numbers were determined using quantitative real-time PCR.
Quantitative real-time PCRs were performed using IQ SYBR green Supermix and the IQ5 multicolor real-time PCR detection system (Bio-Rad, CA, USA). […] Fluorescence data were acquired at the end of the elongation step. […]
The samples were quantified using a calibration curve that was generated in parallel. A standard quantification curve was generated for each of the tested genes based on a serial dilution of a known amount of target DNA (from 10 to 10^6 copies) utilizing the optimal PCR conditions described above. […]
In data set [3] the target is PdgC^L68A/V73A/K77G/I115G. Put plainly: SPR binding of PAHs to four-site mutated PdgC sensor chip. Conditions: four-site mutation PdgC; for Kd: read-out: affinity constant (KD). More on the design: species or system Cycloclasticus sp. strain P1. Here is the method:
(§1) The immobilization of the PdgC PAS domain on the sensor surface was carried out as previously described ([68]). Briefly, PdgC was diluted in 10 mM sodium acetate (pH 5.5) and immobilized on a CM5 sensor chip using the amine coupling method by following the manufacturer’s protocol. SPR measurements were performed using a Biacore T200 system (GE Healthcare, Sweden).
PAH compounds were diluted in running buffer (phosphate-buffered saline [PBS] containing 5% DMSO) to a concentration of 50 μM. Running buffer alone (PBS containing 5% DMSO, without PAHs) served as the negative control. All solutions were then injected into the PdgC sensor surface for 120 s at a flow rate of 30 μl/min. Sensograms of these PAHs were recorded and analyzed. Analytes were injected through the reference and active channels at a flow rate of 30 μl/min. The association and dissociation times were both 120 s. Affinity fitting (determination of the affinity constant, KD) was performed using Biacore T200 evaluation software with a 1:1 binding mode.
For orientation: SPR reads the build-up and loss of mass on a sensor chip optically.

In data set [4] the target is T1, PdgC. Put plainly: SPR binding of PAHs to PdgC sensor chip. Further details: species or system Cycloclasticus sp. strain P1. Conditions: wild-type PdgC; for Kd: 20°C, read-out: affinity constant (KD). Here is the method:
as §1
PAH compounds were diluted in running buffer (phosphate-buffered saline [PBS] containing 5% DMSO) to a concentration of 50 μM. Running buffer alone (PBS containing 5% DMSO, without PAHs) served as the negative control. All solutions were then injected into the PdgC sensor surface for 120 s at a flow rate of 30 μl/min. Sensograms of these PAHs were recorded and analyzed. […] The association and dissociation times were both 120 s. Affinity fitting (determination of the affinity constant, KD) was performed using Biacore T200 evaluation software with a 1:1 binding mode.

Data set [5] addresses T1, PdgC. Further details: method as in PMID 30171002. Conditions: in the presence of PAH; cited from earlier work.
Data set [6] has as its system wild-type Cycloclasticus sp. strain P1. Put plainly: Intracellular c-di-GMP quantification (HPLC-MS/MS), wild type. The format is cell-based. Conditions: for intracellular concentration of c-di-GMP vs PAH-absent control: wild-type strain P1, after exposure to PAH, 48 h. Here is the method: Intracellular c-di-GMP levels were determined using high-performance liquid chromatography tandem mass spectrometry (HPLC-MS/MS), as previously described ([66]), with the following modifications. Strain P1 cells, obtained from OD-adjusted overnight precultures, were inoculated onto various PAH substrates and grown for 48 h in triplicate. Bacterial pellets were resuspended in 0.2% ice-cold formaldehyde at a concentration of 300 mg wet weight/ml, incubated on ice for 10 min, and then centrifuged at 10,000 × g for 15 min. Each pellet was then resuspended in […] of H2O. After extracting nucleotides using ethanol extraction ([67]), samples were dried under a vacuum, reconstituted in […] of H2O via vigorous vortexing and sonication for 5 min, and finally centrifuged for 15 min at 10,000 × g. The supernatants were analyzed at 55°C using an Agilent 1200 HPLC system with a C18 ACE 3 AQ 150- by 2.1-mm column and the corresponding column guard. The mobile phase consisted of 0.1% formic acid run in an H2O-acetonitrile gradient at a flow rate of 300 μl/min, reaching 50% acetonitrile in 15 min. MS analysis was then performed via negative ion electrospray from the Agilent HPLC system into a Bruker HCT Plus ion trap in multiple reaction mode. Using SmartFrag (HyStar software), the trap was set to isolate fragment ions at m/z 688.9 (with a monitored mass range of m/z 450 to 700) from a full scan. Data Analysis v3.3 was used to interrogate the acquisitions, and the extracted ion chromatograms of m/z 538 were produced from the negative-ion MS/MS of m/z 688.9. The retention times and peak spectra were matched to the injected standard (c-di-GMP; Biolog LifeScience Institute, Bremen, Germany) at intervals throughout the run. Peak areas and relative c-di-GMP levels were normalized to the levels obtained with the injected standard. A solution of 1 mg/ml c-di-GMP standard in water was diluted to prepare the spiking solutions with 100 ng/ml, 200 ng/ml, 300 ng/ml, 400 ng/ml, 500 ng/ml, 600 ng/ml, 700 ng/ml, 800 ng/ml, and 900 ng/ml c-di-GMP standard. Extractions and quantifications were all performed in triplicate. The amount of c-di-GMP detected in the blank was subtracted from that detected in the spiked calibrants, and the analysis was calibrated using a linear regression (r^2 = 0.993). To obtain an estimate of c-di-GMP concentration per unit of cellular biomass, the c-di-GMP concentration was divided by the measured OD600 of the original culture.

The test system of data set [7] is DPR-1. In words: Expression of dpr-1 in wild-type P1 (real-time PCR). Conditions: wild-type strain P1 grown on PAH, control sodium acetate. A general note: Real-time PCR tracks product formation cycle by cycle.
Protocol: Cycloclasticus sp. strain P1 and mutant strain PARP1 were grown in 200 ml of MMC medium containing the appropriate antibiotics, with sodium acetate or PAHs as the carbon source, in 500 ml Erlenmeyer flasks at 28°C on a rotary shaker (200 rpm). Bacterial growth was monitored based on optical density (OD600). Total RNA was extracted using the RNeasy minikit (Qiagen, Valencia, CA, USA) according to the manufacturer’s protocols and subsequently treated with DNase I (Invitrogen, Carlsbad, CA, USA). The RNA yield was estimated using a NanoDrop UV spectrometer (Thermo Scientific, Wilmington, DE, USA). Approximately 4 μg of RNA was reverse transcribed using 20 ng of random primers (Invitrogen, Carlsbad, CA, USA) and PrimeScript reverse transcriptase (TaKaRa, Dalian, China). Control reactions were performed in the absence of reverse transcriptase to verify the absence of genomic DNA. To calculate the number of viable bacteria present, 16S rRNA gene copy numbers were determined using quantitative real-time PCR.
Quantitative real-time PCRs were performed using IQ SYBR green Supermix and the IQ5 multicolor real-time PCR detection system (Bio-Rad, CA, USA). The reactions were performed in 96-well optical plates sealed with optical caps. […] Fluorescence data were acquired at the end of the elongation step. […]
The samples were quantified using a calibration curve that was generated in parallel. A standard quantification curve was generated for each of the tested genes based on a serial dilution of a known amount of target DNA (from 10 to 10^6 copies) utilizing the optimal PCR conditions described above. […] Based on the calibration curve (determined using IQ^5 multicolor real-time PCR detection system software), the initial copy number of each target mRNA was calculated for each sample. The calculated values were normalized to the expression of the 16S rRNA gene to yield the number of copies of each mRNA transcript in 1,000 wild-type Cycloclasticus sp. strain P1 or mutant cells.
Data set [8] addresses DPR-2 (Cycloclasticus sp. P1, UniProt K0C733). Put plainly: SPR binding of cyclic nucleotides to DPR-2 sensor chip. Conditions: for Ka: DPR-2.
In data set [9] the target is DPR-1 (Cycloclasticus sp. P1, UniProt K0C5A9). In words: SPR binding of cyclic nucleotides to DPR-1 sensor chip.
Chain of DPR-1 (Cycloclasticus sp. P1, UniProt K0C5A9) (K0C5A9 1-242): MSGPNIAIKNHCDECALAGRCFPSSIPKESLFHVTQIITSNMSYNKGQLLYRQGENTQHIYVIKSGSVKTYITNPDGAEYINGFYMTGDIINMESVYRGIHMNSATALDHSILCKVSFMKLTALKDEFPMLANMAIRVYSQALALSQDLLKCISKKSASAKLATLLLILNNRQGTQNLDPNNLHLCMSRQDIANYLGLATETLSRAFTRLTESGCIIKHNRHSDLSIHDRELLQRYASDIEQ
Data set [10] deals with DPR-1 (Cycloclasticus sp. strain P1). Put plainly: SPR. Conditions: biotin-DNA on streptavidin chip, DPR 0-100 nM, with or without 80 nM c-di-GMP, 25 C, 30 ul/min, 150 s association/150 s dissociation, 1:1 fit, buffer ….
Data set [11] concerns DPR-2 (Cycloclasticus sp. strain P1). In words: SPR. Conditions: biotin-DNA on streptavidin chip, DPR 0-100 nM, with or without 80 nM c-di-GMP, 25 C, 30 ul/min, 150 s association/150 s dissociation, 1:1 fit, buffer ….
The target of data set [12] is DPR-1. Put plainly: SPR (Biacore T200) with DPR-1, DPR-2 or their quadruple mutants immobilized on CM5 chips and cyclic nucleotides injected in 20 mM MOPS pH 8.0, 300 mM NaCl, 0.005% P20, 0.1 mg/ml BSA at 30 ul/min; 20 °C in results, 25 °C in methods; 1:1 binding fit (legend: steady-state affinity model). Conditions: read-out: affinity constant (KD); n = 3.
Protocol: (§2) The interactions between DPR and secondary message molecules, including c-di-GMP, c-di-AMP, and cyclic AMP (cAMP), were examined using SPR assays.
(§3) SPR data for the binding of c-di-GMP to DPR-1 or DPR-2 (A) and DPR-1^L93A/D94A/T101A/L102A or DPR-2^L91A/D92A/T99A/L100A (B). […] The values of the affinity constant (KD) were calculated by global fitting, using a steady-state affinity model. Data were representatives of three independent experiments.
(§4) The values of the affinity constant (KD) were calculated by global fitting, using a steady-state affinity model. Data were representative of three independent experiments.
(§5) To reconfirm this binding model, site mutations were introduced into DPR-2 (or DPR-1) at L91/A91, D92/A92, T99/A99, and L100/A100, resulting in a quadruple mutated protein, DPR-2^L91A/D92A/T99A/L100A (or DPR-1^L93A/D94A/T101A/L102A). […]
(§6) We covalently immobilized 50 μg/ml DPR-1 and DPR-2 in 10 mM sodium acetate buffer (pH 5.5) onto separate CM5 sensor chips (GE Healthcare), using standard primary amine coupling procedures. […] After double referencing by subtracting the signal of the reference flow cell and the curve of the buffer injection, KD values for c-di-GMP binding to the DPRs immobilized on the sensor chip surface were calculated using reference points at the end of the association phase. Values were calculated with Biacore T200 evaluation software using a 1:1 binding mode.
Data set [13] deals with DPR-2. The data set is described as above. Conditions: read-out: affinity constant (KD); n = 3.
Protocol: as §2, §3, §4, §5, §6
Where [14] appears, read: no c-di-GMP, value order assumed as in Fig. 7 legend.

Chain of DPR-2 (Cycloclasticus sp. P1, UniProt K0C733) (K0C733 1-238): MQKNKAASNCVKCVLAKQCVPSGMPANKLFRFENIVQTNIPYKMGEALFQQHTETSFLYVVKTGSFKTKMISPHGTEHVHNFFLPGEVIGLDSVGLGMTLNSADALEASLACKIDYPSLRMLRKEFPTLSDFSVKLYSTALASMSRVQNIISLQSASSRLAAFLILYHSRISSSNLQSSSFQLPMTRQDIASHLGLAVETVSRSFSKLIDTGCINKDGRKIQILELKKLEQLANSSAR

On to `c1ccc2c(c1)ccc1ccccc12` [phenanthrene], for which the “PdgC activity in vitro” value at PdgC [1] is “active only in the presence of PAHs”. For the same compound, the DPR-2 expression result in the data set with DPR-2 [2] is listed as “slightly upregulated”. The values for the Kd (in data set [3] (listed as Phenanthrene); in [3]; at PdgC [4]) were 43 µM, approximately 100 µM and 46 nM, respectively. In addition, at PdgC [5], the pdgC upregulation was 6.5- to 8.0 fold. In [6], the “intracellular concentration of c-di-GMP vs PAH-absent control” value is 8- to 10 fold. Besides, the DPR-1 expression entry in the data set on DPR-1 [7] is listed as “slightly upregulated”.

`Nc1nc2c(ncn2C2OC3COP(=O)(O)OC4C(COP(=O)(O)OC3C2O)OC(n2cnc3c(=O)[nH]c(N)nc32)C4O)c(=O)[nH]1` (stereo not shown) [c-di-GMP, cyclic dimeric GMP]: the Ka at DPR-2 [8] worked out at 5.41e5 M^-1S^-1; on DPR-1 [9] (DPR-1) it was 3.94e5 M^-1S^-1. In addition, the Kd at DPR-2 [8] (affinity constant (KD), DPR-2, 20°C) is 40 nM and ~100 nM; on DPR-1 [9] (DPR-1), 1.09e-2 S^-1.

As for `c1ccc2ccccc2c1` [naphthalene], the DPR-2 expression result in the data set with DPR-2 [2] is on record as “slightly upregulated”. The Ka is recorded as 7.6e2 M-1S-1 in data set [3] and 5.51e5 M^-1S^-1 on PdgC [4]. Besides, the Kd in data set [3] (listed as Naphthalene) was 78 µM; in data set [3] it was approximately 100 µM. Besides, the pdgC upregulation at PdgC [5] was 6.5- to 8.0 fold. The “intracellular concentration of c-di-GMP vs PAH-absent control” value in [6] is given as 8- to 10 fold. Further, the DPR-1 expression entry in the data set with DPR-1 [7] is “slightly upregulated”.

With `Nc1ncnc2c1ncn2[C@@H]1O[C@@H]2COP(=O)(O)O[C@H]2[C@H]1O` [cAMP, cyclic AMP], the Ka was determined as 5.33e3 M^-1S^-1 on DPR-2 [8] and 4.15e3 M^-1S^-1 on DPR-1 [9] (DPR-1). Also, the Kd at DPR-2 [8] (read-out: affinity constant (KD), DPR-2, 20°C) is 3500 nM; at DPR-1 [9] (DPR-1) it was 1.35e-2 S^-1; at DPR-1 [9] (read-out: affinity constant (KD), DPR-1, 20°C), 3.3 µM.

On to `c1cc2ccc3cccc4ccc(c1)c2c34` [pyrene], for which, on PdgC [1], the “PdgC activity in vitro” value is “active only in the presence of PAHs”. Also, the Kd is 100 µM in data set [3] (listed as Pyrene), approximately 100 µM in data set [3] and 46 nM on PdgC [4]. On PdgC [4], this compound had a Ka of 4.12e5 M^-1S^-1. In addition, the pdgC upregulation at PdgC [5] was 6.5- to 8.0 fold. In [6] (wild-type strain P1), the “c-di-GMP production higher than that caused by naphthalene or phenanthrene” value lay within 30 to 35%. Moreover, the “intracellular concentration of c-di-GMP vs PAH-absent control” value in data set [6] is on record as 8- to 10 fold. The DPR-1 expression entry in the data set on DPR-1 [7] is “significantly upregulated”.

PQ91_0870-0877: the Kd came out at 0.62 nM in data set [10] and 730 nM in [10] (no c-di-GMP, text prints 0.73 x 10^6 M, exponent sign evidently lost).

Consider PQ91_2220-2218, for which the figures for the Kd in [11] and in data set [11] (setting [14]) were 0.59 nM and 780 nM, respectively.

For the compound PQ91_2244-2242, the Kd was 6.4 nM in data set [11] and 630 nM in [11] (setting [14]).

As to `Nc1ncnc2c1ncn2[C@@H]1O[C@@H]2COP(=O)(O)O[C@H]3[C@@H](O)[C@H](n4cnc5c(N)ncnc54)O[C@@H]3COP(=O)(O)O[C@H]2[C@H]1O` [c-di-AMP, cyclic dimeric AMP], the Kd at DPR-1 [12] came to 4.1 µM; at DPR-2 [13], 2600 nM.

With PQ91_0869, the Kd is 3.3 nM in data set [10] and 690 nM in data set [10] (no c-di-GMP).

PQ91_2227-2224: the results for the Kd in data set [11] and in [11] (setting [14]) were 0.71 nM and 620 nM, respectively.

Consider `Nc1ncnc2c1ncn2[C@@H]1O[C@@H]2COP(=O)(O)O[C@H]3[C@@H](O)[C@H](n4cnc5c(N)ncnc54)O[C@@H]3COP(=O)(O)O[C@H]2[C@H]1O` [c-di-AMP], for which, on DPR-2 [8], the Ka stood at 6.16e3 M^-1S^-1. On DPR-1 [9] (DPR-1), the Ka turned out to be 6.58e3 M^-1S^-1 and the Kd is listed as 2.73e-2 S^-1.
